Source: PubChem BioAssay (NCI)
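Growth conditions: 96-well plates. Treatment: test compound, 48 hours, 5 concentrations. Analysis: linear interpolation between bracketing concentrations; unreached endpoints set to highest concentration. At the GI50, growth is halved. TGI: concentration producing complete growth inhibition.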

Experiments:
Experiment in all cases: NCI-60 cell line screen, 48 h
[1] = test system: DMS 114 small cell lung
[2] = test system: LXFL 529 NSCLC
[3] = test system: M19-MEL melanoma
[4] = test system: XF 498 CNS
[5] = test system: RXF-631 renal
[6] = test system: MDA-N
[7] = test system: SNB-78 CNS
[8] = test system: KM20L2 colon
[9] = test system: HOP-18 NSCLC

## CCOC(=O)C(=O)C1C(=O)Nc2ccccc21 (stereo unspecified)
[1]
  TGI: > 100 µM
[2]
  TGI: > 100 µM
[3]
  TGI: > 100 µM
[4]
  TGI: > 100 µM
[5]
  TGI: > 100 µM

## C[N+](C)([O-])CCCNc1c2ccccc2nc2cccc([N+](=O)[O-])c12
[6]
  TGI: 0.524 µM

## CC(=N\O)/C(C)=N/O.CC(=N\O)/C(C)=N/O.CC(=N\O)/C(C)=N/O.CC(=N\O)/C(C)=N/O.[Cu].[Cu]
[6]
  GI50: 20.5 µM
  TGI: 43.5 µM

## Cn1cc(NC(=O)c2cc(NC(=O)Nc3cc(C(=O)Nc4cc(C(=O)NCCC(=N)N)n(C)c4)n(C)c3)cn2C)cc1C(=O)NCCC(=N)N
[7]
  TGI: 82 µM
[8]
  TGI: > 100 µM
[1]
  TGI: > 100 µM
[2]
  TGI: > 100 µM
[9]
  TGI: > 100 µM
[3]
  TGI: 83.1 µM
[4]
  TGI: 45.8 µM
[5]
  TGI: 56.9 µM

## O=c1[nH]c(=O)n(C2CC(O)C(CO)O2)cc1C(OCC(F)(F)F)OCC(F)(F)F (stereo unspecified)
[7]
  TGI: > 100 µM
[8]
  TGI: > 100 µM
[1]
  TGI: > 100 µM
[2]
  TGI: > 100 µM
[3]
  TGI: > 100 µM
[4]
  TGI: > 100 µM
[5]
  TGI: > 100 µM

## CC(=O)O[C@H]1CC[C@@]2(C)C(CC[C@]3(C)C2CC[C@]2(C)Oc4c(C)cc(O)cc4C[C@@H]23)C1(C)C (stereo partly specified)
[7]
  TGI: 21.8 µM
[8]
  TGI: 19.2 µM
[1]
  TGI: 26.7 µM
[2]
  TGI: 13.6 µM
[9]
  TGI: 26.4 µM
[3]
  TGI: 25.8 µM
[5]
  TGI: 19.4 µM

## NC1C2C(CC(=O)O)OCC=C3CN4CCC1(C(=O)C(=O)O)C4CC32 (stereo unspecified)
[6]
  TGI: > 100 µM

## CC1=C(C)CC2(SC1)C(=O)c1ccccc1C2=O
[7]
  TGI: > 100 µM
[8]
  TGI: > 100 µM
[1]
  TGI: > 100 µM
[2]
  TGI: > 100 µM
[9]
  TGI: > 100 µM
[3]
  TGI: > 100 µM
[5]
  TGI: > 100 µM

## COc1ccccc1/C=C1\CCC(CNc2ccc(Cl)cc2)C1=O (stereo unspecified)
[7]
  TGI: 54.5 µM
[8]
  TGI: 4.87 µM
[1]
  TGI: 22.5 µM
[2]
  TGI: 13.7 µM
[9]
  TGI: 30.2 µM
[3]
  TGI: 33.1 µM
[4]
  TGI: 42.7 µM

## O=C1CCC2CCc3cccc4oc1c2c34 (stereo unspecified)
[7]
  TGI: > 100 µM
[8]
  TGI: > 100 µM
[1]
  TGI: > 100 µM
[2]
  TGI: > 100 µM
[9]
  TGI: > 100 µM
[3]
  TGI: > 100 µM
[4]
  TGI: > 100 µM

## CCN(CC)CC(=O)/C=C/c1ccc(C)cc1
[7]
  TGI: > 100 µM
[8]
  TGI: 49.4 µM
[1]
  TGI: 37.9 µM
[2]
  TGI: 33 µM
[9]
  TGI: 59.6 µM
[3]
  TGI: 32.7 µM
[4]
  TGI: 92.4 µM

## CNS(=O)(=O)NN(C)S(=O)(=O)c1ccc(Cl)cc1
[8]
  TGI: > 100 µM
[1]
  TGI: > 100 µM
[2]
  TGI: > 100 µM
[3]
  TGI: > 100 µM
[4]
  TGI: > 100 µM
[5]
  TGI: > 100 µM

## CCOCC(=O)N[C@H]1CCc2cc(OC)c(OC)c(OC)c2-c2ccc(SC)c(=O)cc21
[7]
  TGI: > 100 µM
[8]
  TGI: < 0.01 µM
[6]
  TGI: < 0.01 µM
[1]
  TGI: < 0.01 µM
[2]
  TGI: > 100 µM
[9]
  TGI: > 100 µM
[3]
  TGI: > 100 µM
[4]
  TGI: 4.49 µM
[5]
  TGI: > 46.4 µM

## COc1ccc(S(=O)(=O)N/N=C/CN2C(=O)c3ccccc3C2=O)cc1OC
[8]
  TGI: > 100 µM
[1]
  TGI: > 100 µM
[2]
  TGI: > 100 µM
[3]
  TGI: > 100 µM
[4]
  TGI: > 100 µM
[5]
  TGI: > 100 µM

## Cn1ccnc1C(c1nccn1C)C(C)(C)[N+](=O)[O-]
[7]
  TGI: > 100 µM
[1]
  TGI: > 100 µM
[3]
  TGI: > 100 µM
[4]
  TGI: > 100 µM
[5]
  TGI: > 100 µM

## O=C1O[C@H](C(Cl)(Cl)Cl)N2CCCC12 (stereo partly specified)
[8]
  TGI: > 100 µM
[1]
  TGI: > 100 µM
[2]
  TGI: > 100 µM
[9]
  TGI: > 100 µM
[3]
  TGI: > 100 µM
[4]
  TGI: > 100 µM

## N=S(=O)(c1ccccc1)c1ccccc1[N+](=O)[O-] (stereo unspecified)
[7]
  TGI: > 100 µM
[8]
  TGI: > 100 µM
[2]
  TGI: > 100 µM
[9]
  TGI: > 100 µM
[3]
  TGI: > 100 µM
[4]
  TGI: > 100 µM
[5]
  TGI: > 100 µM

## CC1CCc2c(sc3ncnc(N/N=C/c4ccc(Cl)c(Cl)c4)c23)C1 (stereo unspecified)
[8]
  TGI: > 100 µM
[1]
  TGI: 13.3 µM
[3]
  TGI: 96.2 µM

## C=CCC12CCC(=O)C=C1CCC1(C2)OCCO1 (stereo unspecified)
[7]
  TGI: > 100 µM
[8]
  TGI: > 100 µM
[1]
  TGI: > 100 µM
[2]
  TGI: > 100 µM
[9]
  TGI: > 100 µM
[3]
  TGI: > 100 µM
[5]
  TGI: > 100 µM

## OCCN(CCO)c1cccc(N(CCO)CCO)c1
[7]
  TGI: > 100 µM
[8]
  TGI: > 100 µM
[1]
  TGI: > 100 µM
[2]
  TGI: > 100 µM
[3]
  TGI: > 100 µM
[4]
  TGI: > 100 µM
[5]
  TGI: > 100 µM

## CCNc1c(C(=O)N(CC)CC)c(=O)[nH]c2ncccc12
[7]
  TGI: > 100 µM
[8]
  TGI: > 100 µM
[1]
  TGI: > 100 µM
[2]
  TGI: > 100 µM
[3]
  TGI: > 100 µM

## O=C(Nc1c(Cl)cc([N+](=O)[O-])cc1Cl)C(=O)C1C(=O)NC(=S)NC1=O
[6]
  TGI: > 100 µM

## C=C(C)C(=O)OC1CC2(C)OC2CC(OC(C)=O)/C(C)=C/C2OC(=O)C(=C)C21 (stereo unspecified)
[6]
  TGI: 8.59 µM

## CS(=O)(=O)N(CCC#N)c1ccc(/C=N/NC(=O)CC(=O)Nc2cccc(Cl)c2)cc1
[7]
  TGI: > 100 µM
[8]
  TGI: > 100 µM
[1]
  TGI: > 100 µM
[2]
  TGI: > 100 µM
[9]
  TGI: > 100 µM
[3]
  TGI: > 100 µM

## CCON=C1C(C)(C)C(C)(C)C(C)(C)C1(C)C
[6]
  TGI: > 100 µM

## N#CCCN(CCC#N)c1ccc(/C=C2\N=C(COc3ccc(Cl)cc3Cl)OC2=O)cc1
[7]
  TGI: > 100 µM
[8]
  TGI: > 100 µM
[1]
  TGI: > 100 µM
[2]
  TGI: > 100 µM
[3]
  TGI: > 100 µM
[4]
  TGI: > 100 µM
[5]
  TGI: > 100 µM

## Cc1cc2c(cc1C)[n+](=O)c(C(=O)/C=C/c1ccc(Cl)cc1)c(C)n2[O-]
[7]
  TGI: > 100 µM
[8]
  TGI: > 100 µM
[1]
  TGI: 94.4 µM
[2]
  TGI: > 100 µM
[9]
  TGI: > 100 µM
[3]
  TGI: > 100 µM
[4]
  TGI: 68.6 µM

## O=c1[nH]c(-c2ccccc2)nc2ccc(Cl)cc12
[7]
  TGI: > 100 µM
[8]
  TGI: > 100 µM
[1]
  TGI: > 100 µM
[2]
  TGI: > 100 µM
[3]
  TGI: > 100 µM

## CS(=O)(=O)OCCN1CCN(C(=O)c2cccc3c(Nc4ccc(S(N)(=O)=O)cc4)c4ccccc4nc23)CC1
[7]
  TGI: > 100 µM
[8]
  TGI: > 100 µM
[1]
  TGI: > 57.6 µM
[2]
  TGI: > 100 µM
[9]
  TGI: > 100 µM
[3]
  TGI: > 100 µM
[4]
  TGI: > 100 µM
[5]
  TGI: > 100 µM

## NC1CCCCC1N.O=C([O-])P(=O)([O-])[O-].[Na+].[Pt+4] (stereo unspecified)
[7]
  GI50: > 100 µM
  TGI: > 100 µM
[8]
  GI50: > 100 µM
  TGI: > 100 µM
[2]
  GI50: > 100 µM
  TGI: > 100 µM
[9]
  GI50: > 100 µM
  TGI: > 100 µM
[3]
  GI50: 85.1 µM
  TGI: > 100 µM

## O=S(=O)([O-])[O-].[Cl-].[NH2-].[NH2-].[NH2-].[NH2-].[Ru+3].c1ccc(-c2cccnc2)cc1
[7]
  GI50: > 100 µM
  TGI: > 100 µM
[8]
  GI50: > 100 µM
  TGI: > 100 µM
[2]
  GI50: > 100 µM
  TGI: > 100 µM

## O=C(CC1(O)C(=O)Nc2ccc(Br)cc21)c1ccc(Cl)cc1 (stereo unspecified)
[7]
  TGI: > 100 µM
[8]
  TGI: > 100 µM
[2]
  TGI: > 100 µM
[9]
  TGI: > 100 µM
[5]
  TGI: > 100 µM

## COc1cccc2c1C1(O)C2CCCC12OCCCO2 (stereo unspecified)
[7]
  TGI: > 100 µM
[8]
  TGI: > 100 µM
[1]
  TGI: > 100 µM
[2]
  TGI: > 100 µM
[9]
  TGI: > 100 µM
[3]
  TGI: > 100 µM

## CCN(CC)c1ccc(N=C2C=CC(=O)c3ncccc32)c(C)c1
[7]
  TGI: 31.2 µM
[8]
  TGI: 26.5 µM
[1]
  TGI: 12.9 µM
[2]
  TGI: 8.67 µM
[9]
  TGI: 22.8 µM
[3]
  TGI: 22.6 µM
[4]
  TGI: 5.19 µM
[5]
  TGI: 28.6 µM
